# From patent publication US20230096766A1, “AMINO ACID HAVING FUNCTIONAL GROUP CAPABLE OF INTERMOLECULAR HYDROGEN BONDING, PEPTIDE COMPOUND CONTAINING SAME AND METHOD FOR PRODUCTION THEREOF” (Chugai Seiyaku Kabushiki Kaisha, priority 2018, published 2023)
# *1 amine or outer side, *2 acyl side, *3 side chain or, on linkers, in order; H or OH if unused. Where a SMILES comes first, the peptide text is derived from it. Bridges are numbered along the chain shown (N, C = ends). [ ]: non-standard residue; d: D form. The star is where a group is joined. Phe(3-OMe,4-CONHMe) = CNC(=O)c1ccc(C[C@H](N)C(=O)O)cc1OC; NMeAbu(4-morpholino) = CN[C@@H](CCN1CCOCC1)C(=O)O; X5 = O=C([C@H](CCC[C@@H]1CC(F)(F)CN1)N[*:1])[*:2]; X11 = CNC(=O)c1ccc(CCN(CC(=O)[*:2])[*:1])cc1OC; NMePhe(3-Cl) = CN[C@@H](Cc1cccc(Cl)c1)C(=O)O; X12 = O=C([C@H](CCCC(O)C(F)(F)F)N[*:1])[*:2]; Tyr(3-OMe) = COc1cc(C[C@H](N)C(=O)O)ccc1O; X9 = O=C([C@@H](CN[*:1])COCCO)[*:2]; NMeF = CN[C@@H](Cc1ccccc1)C(=O)O; NMeGABA = CN(CCCC(=O)[*:2])[*:1]; NMeI = CC[C@H](C)[C@H](NC)C(=O)O; CH2CH(OH)CF3 = OC(C*)C(F)(F)F; CH2CONHtBu = CC(C)(C)NC(=O)C*; NMeL = CN[C@@H](CC(C)C)C(=O)O; Propyl(2R-OH) = C[C@@H](O)C*; NMeV = CN[C@H](C(=O)O)C(C)C; NMeAbu = CC[C@H](NC)C(=O)O; NMeA = CN[C@@H](C)C(=O)O; Piperidide = C1CCN(*)CC1; dNMeA = CN[C@H](C)C(=O)O; X8 = C1COC[C@@H](C*)N1; NBuGly = CCCCNCC(=O)O; Sar = CNCC(=O)O; tBu = CC(C)(C)*
# Test: in vitro
# Conditions: human, Caco-2, Caco-2
row,SMILES,Papp
1,CCCCN1CC(=O)N(C)[C@@H](CCN2CCOCC2)C(=O)N[C@H](C(=O)N2CCCCC2)CC(=O)N(C)[C@@H](C)C(=O)N[C@@H](CC(C)C)C(=O)N(C)[C@@H](CC(C)C)C(=O)N(C)[C@@H](Cc2ccccc2)C(=O)N[C@@H](CC(C)C)C(=O)N(C)[C@@H](Cc2ccccc2)C(=O)N(C)[C@@H](CC(C)C)C(=O)N[C@@H]([C@@H](C)O)C1=O [pd454] ([NMeA]L[NMeL][NMeF]L[NMeF][NMeL]T[NBuGly][NMeAbu(4-morpholino)]D-Piperidide; lactam N-11),1.2 ×10⁻⁶ cm/s

# Same assay, conditions: human, Caco-2, Caco-2 (cm/sec)
row,SMILES,Papp
1,CC[C@H](C)[C@@H]1NC(=O)[C@H](CC(C)C)N(C)C(=O)CCCN(C)C(=O)C[C@@H](C(=O)N2CCCCC2)NC(=O)[C@H](CC(C)C)N(C)C(=O)[C@H](CC(C)C)N(C)C(=O)[C@H]([C@@H](C)O)NC(=O)[C@H](CC(C)C)N(C)C(=O)[C@H](COC[C@@H]2COCCN2)NC(=O)[C@H](CC(C)C)N(C)C(=O)[C@H](Cc2ccccc2)N(C)C1=O [AP241] ([NMeGABA][NMeL]I[NMeF][NMeL]S(X8)[NMeL]T[NMeL][NMeL]D-Piperidide; lactam N-11),0.05 ×10⁻⁶ cm/s
2,CC(C)C[C@@H]1NC(=O)[C@H](Cc2ccccc2)N(C)C(=O)[C@H](CC(C)C)N(C)C(=O)[C@@H](C)N(C)C(=O)C[C@@H](C(=O)N2CCCCC2)NC(=O)[C@H](CC(C)C)N(C)C(=O)[C@H](Cc2ccccc2)N(C)C(=O)[C@H]([C@@H](C)O)NC(=O)[C@H](Cc2ccccc2)N(C)C1=O [pd223] ([dNMeA][NMeL][NMeF]L[NMeF]T[NMeF][NMeL]D-Piperidide; lactam N-9),1.1 ×10⁻⁶ cm/s
3,CCCCN1CC(=O)N(C)[C@@H](Cc2ccccc2)C(=O)N(C)[C@@H](CC(C)C)C(=O)N[C@@H](Cc2ccc(O)c(OC)c2)C(=O)N(C)[C@@H](CC(C)C)C(=O)N[C@H](C(=O)N2CCCCC2)CC(=O)N(C)CC(=O)N(C)[C@@H](CC(C)C)C(=O)N[C@@H]([C@@H](C)CC)C(=O)N(C)[C@@H](CC(C)C)C(=O)N[C@@H]([C@@H](C)O)C1=O [Compound E08] ([Sar][NMeL]I[NMeL]T[NBuGly][NMeF][NMeL][Tyr(3-OMe)][NMeL]D-Piperidide; lactam N-11),0.12 ×10⁻⁶ cm/s
4,CC[C@H](C)[C@@H]1NC(=O)[C@H](CC(C)C)N(C)C(=O)CCCN(C)C(=O)C[C@@H](C(=O)N2CCCCC2)NC(=O)[C@H](CC(C)C)N(C)C(=O)[C@H](C)N(C)C(=O)[C@H](Cc2c[nH]c3ccccc23)NC(=O)[C@H](CC(C)C)N(C)C(=O)[C@H](COC(C)(C)C)NC(=O)[C@H](CC(C)C)N(C)C(=O)[C@H](CC(C)C)N(C)C1=O [pd110] ([NMeGABA][NMeL]I[NMeL][NMeL]S(tBu)[NMeL]W[NMeA][NMeL]D-Piperidide; lactam N-11),0.29 ×10⁻⁶ cm/s
5,CCCCN1CC(=O)N(C)[C@@H](CC(C)C)C(=O)N[C@@H]([C@@H](C)CC)C(=O)N(C)[C@@H](Cc2ccccc2)C(=O)N[C@@H]([C@@H](C)O)C(=O)N(CCCC)CC(=O)N(C)[C@@H](CC(C)C)C(=O)N(C)[C@@H](Cc2ccccc2)C(=O)N[C@@H](COCC(=O)NC(C)(C)C)C(=O)N(C)[C@@H](C)C(=O)N[C@H](C(=O)N2CCCCC2)CC1=O [AP19] ([NBuGly][NMeL]I[NMeF]T[NBuGly][NMeL][NMeF]S(CH2CONHtBu)[NMeA]D-Piperidide; lactam N-11),0.88 ×10⁻⁶ cm/s
6,CCCCN1CC(=O)N(C)[C@@H](C)C(=O)N[C@@H](COC(C)(C)C)C(=O)N(C)[C@@H](CC(C)C)C(=O)N(CCc2ccc(C(=O)NC)c(OC)c2)CC(=O)N[C@H](C(=O)N2CCCCC2)CC(=O)N[C@H](CC(C)C)C(=O)N(C)[C@@H](Cc2ccccc2)C(=O)N[C@@H](CC(C)C)C(=O)N(C)[C@@H](CC(C)C)C(=O)N[C@@H]([C@@H](C)O)C1=O [AP220] ([dL][NMeF]L[NMeL]T[NBuGly][NMeA]S(tBu)[NMeL][X11]D-Piperidide; lactam N-11),0.8 ×10⁻⁶ cm/s
7,CCCCN1CC(=O)N(C)[C@@H](CC(C)C)C(=O)N[C@H](C(=O)N2CCCCC2)CC(=O)N(C)[C@@H](CC(C)C)C(=O)NC[C@@H](COCCO)C(=O)N(C)[C@@H](CC(C)C)C(=O)N(C)[C@@H](Cc2ccccc2)C(=O)N[C@@H](CC(C)C)C(=O)N(C)[C@@H](Cc2ccccc2)C(=O)N(C)[C@@H](CC(C)C)C(=O)N[C@@H]([C@@H](C)O)C1=O [AP131] ([NMeL][X9][NMeL][NMeF]L[NMeF][NMeL]T[NBuGly][NMeL]D-Piperidide; lactam N-11),1.1 ×10⁻⁶ cm/s
8,CC(C)C[C@H]1C(=O)N[C@@H](Cc2ccc(O)cc2)C(=O)N(C)[C@@H](CC(C)C)C(=O)N(C)[C@@H](Cc2ccccc2)C(=O)N[C@@H](COC(C)(C)C)C(=O)N(C)[C@@H](CC(C)C)C(=O)N[C@@H]([C@@H](C)O)C(=O)N(C)[C@@H](CC(C)C)C(=O)N(C)[C@@H](CC(C)C)C(=O)N[C@H](C(=O)N2CCCCC2)CC(=O)N(C)CCCC(=O)N1C [Compound F04] ([NMeGABA][NMeL]Y[NMeL][NMeF]S(tBu)[NMeL]T[NMeL][NMeL]D-Piperidide; lactam N-11),0.13 ×10⁻⁶ cm/s
9,"CCCCN1CC(=O)N(C)[C@@H](CC(C)C)C(=O)N[C@@H](Cc2ccc(C(=O)NC)c(OC)c2)C(=O)N(C)[C@@H](CC(C)C)C(=O)N(C)[C@@H](CC(C)C)C(=O)N[C@H](C(=O)N2CCCCC2)CC(=O)N[C@H](CC(C)C)C(=O)N(C)[C@@H](Cc2ccccc2)C(=O)N[C@@H](C(C)C)C(=O)N(C)[C@@H](CC(C)C)C(=O)N[C@@H]([C@@H](C)O)C1=O [AP28] ([dL][NMeF]V[NMeL]T[NBuGly][NMeL][Phe(3-OMe,4-CONHMe)][NMeL][NMeL]D-Piperidide; lactam N-11)",0.38 ×10⁻⁶ cm/s
10,CC[C@H](C)[C@H]1C(=O)N[C@@H]([C@@H](C)O)C(=O)N(C)CC(=O)N(C)[C@@H](CC(C)C)C(=O)N[C@H](C(=O)N2CCCCC2)CC(=O)N(C)[C@@H](C(C)C)C(=O)N[C@@H](COC[C@@H](C)O)C(=O)N(C)[C@@H](CC(C)C)C(=O)N(C)[C@@H](Cc2cccc(Cl)c2)C(=O)N[C@@H](CC(C)C)C(=O)N(C)[C@@H](Cc2ccccc2)C(=O)N1C [AP79] ([NMeV]S(Propyl(2R-OH))[NMeL][NMePhe(3-Cl)]L[NMeF][NMeI]T[Sar][NMeL]D-Piperidide; lactam N-11),1.1 ×10⁻⁶ cm/s

# Same assay, conditions: human, Caco-2, Caco-2 (membrane permeability)
row,SMILES,Papp
1,CC[C@H](C)[C@@H]1NC(=O)[C@H](CC(C)C)N(C)C(=O)CCCN(C)C(=O)C[C@@H](C(=O)N2CCCCC2)NC(=O)[C@H](CC(C)C)N(C)C(=O)[C@H](CC(C)C)N(C)C(=O)[C@H]([C@@H](C)O)NC(=O)[C@H](CC(C)C)N(C)C(=O)[C@H](COCC(O)C(F)(F)F)NC(=O)[C@H](Cc2ccccc2)N(C)C(=O)[C@H](Cc2ccccc2)N(C)C1=O (stereo partly drawn) [Compound C03] ([NMeGABA][NMeL]I[NMeF][NMeF]S(CH2CH(OH)CF3)[NMeL]T[NMeL][NMeL]D-Piperidide; lactam N-11),0.5 ×10⁻⁶ cm/s
2,CC[C@H]1C(=O)N[C@@H](COC(C)(C)C)C(=O)N(C)[C@@H](Cc2ccccc2)C(=O)N(C)[C@@H](CC(C)C)C(=O)N[C@H](C(=O)N2CCCCC2)CC(=O)N[C@H](CC(C)C)C(=O)N(C)[C@@H](Cc2ccccc2)C(=O)N[C@@H](CC(C)C)C(=O)N(C)[C@@H](CC)C(=O)N[C@@H](CCCC(O)C(F)(F)F)C(=O)N(C)CC(=O)N1C (stereo partly drawn) [Compound D10] ([dL][NMeF]L[NMeAbu][X12][Sar][NMeAbu]S(tBu)[NMeF][NMeL]D-Piperidide; lactam N-11),0.81 ×10⁻⁶ cm/s
3,CC[C@H](C)[C@H]1C(=O)N[C@@H]([C@@H](C)O)C(=O)N(C)CC(=O)N(C)[C@@H](CC(C)C)C(=O)N[C@H](C(=O)N2CCCCC2)CC(=O)N(C)[C@@H](C(C)C)C(=O)N[C@@H](CC(C)C)C(=O)N(C)[C@@H](CC(C)C)C(=O)N(C)[C@@H](Cc2ccccc2)C(=O)N[C@@H](CCCC(O)C(F)(F)F)C(=O)N(C)[C@@H](Cc2ccccc2)C(=O)N1C (stereo partly drawn) [Compound D05] ([NMeV]L[NMeL][NMeF][X12][NMeF][NMeI]T[Sar][NMeL]D-Piperidide; lactam N-11),0.36 ×10⁻⁶ cm/s
4,CC(C)C[C@H]1C(=O)N[C@@H](COCC(O)C(F)(F)F)C(=O)N(C)[C@@H](Cc2cccc(Cl)c2)C(=O)N(C)[C@@H](Cc2ccccc2)C(=O)N[C@@H](COC(C)(C)C)C(=O)N(C)[C@@H](CC(C)C)C(=O)N[C@@H]([C@@H](C)O)C(=O)N(C)[C@@H](CC(C)C)C(=O)N(C)[C@@H](CC(C)C)C(=O)N[C@H](C(=O)N2CCCCC2)CC(=O)N(C)CCCC(=O)N1C (stereo partly drawn) [Compound C02] ([NMeGABA][NMeL]S(CH2CH(OH)CF3)[NMePhe(3-Cl)][NMeF]S(tBu)[NMeL]T[NMeL][NMeL]D-Piperidide; lactam N-11),0.19 ×10⁻⁶ cm/s

# Test: Membrane permeability test of cyclic peptides (Caco-2, modified/improved method of WO 2018/124162)
# Conditions: human, Caco-2, Caco-2 (cm/sec), membrane permeability of cyclic peptides, Caco-2
row,SMILES,Papp
1,"CC[C@H](C)[C@H]1C(=O)N[C@@H]([C@@H](C)O)C(=O)N(C)CC(=O)N(C)[C@@H](CC)C(=O)N[C@H](C(=O)N2CCCCC2)CC(=O)N(C)[C@@H](CC(C)C)C(=O)N[C@@H](Cc2ccc(C(=O)NC)c(OC)c2)C(=O)N(C)[C@@H](CC(C)C)C(=O)N(C)[C@@H](Cc2ccccc2)C(=O)N[C@@H](CC(C)C)C(=O)N(C)[C@@H](CC(C)C)C(=O)N1C [AP31] ([NMeL][Phe(3-OMe,4-CONHMe)][NMeL][NMeF]L[NMeL][NMeI]T[Sar][NMeAbu]D-Piperidide; lactam N-11)",0.52 ×10⁻⁶ cm/s

# Same assay, conditions: human, Caco-2, Caco-2 (membrane permeability), Table 10, cyclic peptides containing Ser(S-4-F2-Pyrro-Me) (G) or Nva(2-R-4-F2-Pyrro) (H)
row,SMILES,Papp
1,CCCCN1CC(=O)N(C)[C@@H](Cc2ccccc2)C(=O)N(C)[C@@H](CC(C)C)C(=O)N[C@@H](C(C)C)C(=O)N(C)[C@@H](CC(C)C)C(=O)N[C@H](C(=O)N2CCCCC2)CC(=O)N(C)CC(=O)N(C)[C@@H](C(C)C)C(=O)N[C@@H](CCC[C@@H]2CC(F)(F)CN2)C(=O)N(C)[C@@H](CC(C)C)C(=O)N[C@@H]([C@@H](C)O)C1=O [Compound H06] ([Sar][NMeV][X5][NMeL]T[NBuGly][NMeF][NMeL]V[NMeL]D-Piperidide; lactam N-11),0.27 ×10⁻⁶ cm/s
2,CCCCN1CC(=O)N(C)[C@@H](C)C(=O)N[C@@H](CCC[C@@H]2CC(F)(F)CN2)C(=O)N(C)[C@@H](Cc2ccccc2)C(=O)N(C)[C@@H](CC)C(=O)N[C@H](C(=O)N2CCCCC2)CC(=O)N[C@H](CC(C)C)C(=O)N(C)[C@@H](CC(C)C)C(=O)N[C@@H](C(C)C)C(=O)N(C)[C@@H](CC(C)C)C(=O)N[C@@H]([C@@H](C)O)C1=O [Compound H02] ([dL][NMeL]V[NMeL]T[NBuGly][NMeA][X5][NMeF][NMeAbu]D-Piperidide; lactam N-11),0.14 ×10⁻⁶ cm/s
